In patent publication US6936607B2, “2,4,6-Triaminopyrimidines for the treatment of depression and/or anxiety” (H. Lunobeck A/S, priority 2002, dated 2005):
pKi: −log10 of the molar value.

Target: T1, human GalR3 receptor (Homo sapiens, UniProt O60755)
T1 construct: expressed in transfected cells; host or cells: mouse fibroblast LM(tk-) cells, stably transfected; membranes
T1 sequence (O60755 1-368): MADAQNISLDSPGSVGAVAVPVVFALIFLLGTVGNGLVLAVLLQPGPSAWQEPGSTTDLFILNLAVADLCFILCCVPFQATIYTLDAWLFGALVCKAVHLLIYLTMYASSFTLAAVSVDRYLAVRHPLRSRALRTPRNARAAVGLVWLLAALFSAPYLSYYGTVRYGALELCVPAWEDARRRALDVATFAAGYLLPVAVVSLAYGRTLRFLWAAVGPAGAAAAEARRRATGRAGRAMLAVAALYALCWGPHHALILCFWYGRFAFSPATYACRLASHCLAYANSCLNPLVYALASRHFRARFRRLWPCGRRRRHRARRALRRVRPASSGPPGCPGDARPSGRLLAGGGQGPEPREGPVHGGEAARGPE
Test: Radioligand binding assay at cloned human GalR3 receptor
Conditions: Binding Data; membranes from LM(tk-) cells stably transfected with the human GalR3 receptor
Method: LM(tk-) cells were stably transfected with the human GalR3 receptor. cDNAs for the human and rat GalR3 receptors were transfected with a G-418 resistant gene into the mouse fibroblast LM(tk-) cell line by a calcium phosphate transfection method (Cullen, 1987). Membranes were harvested from stably transfected LM(tk-) cells. Adherent cells were washed twice in ice-cold phosphate buffered saline (138 mM NaCl, 8.1 mM Na2HPO4, 2.5 mM KCl, 1.2 mM KH2PO4, 0.9 mM CaCl2, 0.5 mM MgCl2, pH 7.4) and lysed by sonication in ice-cold sonication buffer (20 mM Tris-HCl, 5 mM EDTA, pH 7.7). Large particles and debris were cleared by low speed centrifugation (200×g, 5 min, 4° C.). Membranes were collected from the supernatant fraction by centrifugation (32,000×g, 18 min, 4° C.), washed with ice-cold hypotonic buffer, and collected again by centrifugation (32,000×g, 18 min, 4° C.). The final membrane pellet was resuspended by sonication into a small volume of ice-cold binding buffer (˜1 ml for every 5 plates: 10 mM NaCl, 20 mM HEPES, 0.22 mM KH2PO4, 1.26 mM CaCl2, 0.81 mM MgSO4, pH 7.4). Protein concentration was measured by the Bradford method (Bradford, 1976) using Bio-Rad Reagent, with bovine serum albumin as a standard. Membranes were held on ice for up to one hour and used fresh, or flash frozen and stored in liquid nitrogen. Membranes were prepared similarly from CHO cells. The methods to obtain the cDNA of the receptors, express said receptors in heterologous systems, and carry out assays to determine binding affinity are described as follows. Binding assays were performed according to the following published method: human GALR3 (PCT International Publication No. WO 02/060392).

First: Cc1ccc(Nc2cc(N(C)C)nc(N3CCN(c4c(C(F)(F)F)ccc[n+]4[O-])CC3)n2)cc1 [Example 46, N^4,N^4-DIMETHYL-N^6-(4-METHYLPHENYL)-2-{4-[l-OXIDO-3-(TRIFLUOROMETHYL)-2-PYRIDINYL]-1-PIPERAZINYL}-4,6-PYRIMIDINEDIAMINE]
Second: Cc1ccc(Nc2cc(N(C)C)nc(N3CCN(c4cccc(Cl)c4)CC3)n2)cc1 [Example 1, 2-[4-(3-CHLOROPHENYL)-1-PIPERAZINYL]-N^4,N^4-DIMETHYL-N^6-(4-METHYLPHENYL)-4,6-PYRIMIDINEDIAMINE]
The pKi of the first is 0.61 log units lower: 6.58 for the first, 7.19 for the second.

Going from Cc1ccc(Nc2cc(N(C)C)nc(N3CCN(c4ccccc4Cl)CC3)n2)cc1C [Example 17, 2-[4-(2-CHLOROPHENYL)-1-PIPERAZINYL]-N^4-(3,4-DIMETHYLPHENYL)-N^6,N^6-DIMETHYL-4,6-PYRIMIDINEDIAMINE] to Cc1ccc(Nc2cc(N(C)C)nc(N3CCN(c4cccc(Cl)c4)CC3)n2)cc1C [Example 32, 2-[4-(3-CHLOROPHENYL)-1-PIPERAZINYL]-N^4-(3,4-DIMETHYLPHENYL)-N^6,N^6-DIMETHYL-4,6-PYRIMIDINEDIAMINE], the pKi falls from 7.24 to 7.01 (0.23 log units).

COc1cccc(Nc2cc(N(C)C)nc(N3CCN(c4ccccc4F)CC3)n2)c1 [Example 13, 2-[4-(2-FLUOROPHENYL)-1-PIPERAZINYL]-N^4-(3-METHOXYPHENYL)-N^6,N^6-DIMETHYL-4,6-PYRIMIDINEDIAMINE] and CCNc1cc(Nc2cc(N(C)C)nc(N3CCN(Cc4ccccc4)CC3)n2)ccc1C [Example 40, 2-(4-BENZYL-1-PIPERAZINYL)-N^4-[3-(ETHYLAMINO)-4-METHYLPHENYL]-N^6,N^6-DIMETHYL-4,6-PYRIMIDINEDIAMINE] are within 0.2 log units of each other in pKi: 7.03 for the first, 6.86 for the second.

Going from CN(C)c1cc(Nc2cccc(OCc3ccccc3)c2)nc(N2CCc3ccccc32)n1 [Example 42, N^4-[3-(BENZYLOXY)PHENYL]-2-(2,3-DIHYDRO-1H-INDOL-1-YL)-N^6,N^6-DIMETHYL-4,6-PYRIMIDINEDIAMINE] to CN(C)c1cc(Nc2ccc(SC(F)(F)F)c(Cl)c2)nc(N2CCN(c3cccc(Cl)c3)CC2)n1 [Example 20, 2-[4-(3-CHLOROPHENYL)-1-PIPERAZINYL]-N^4-{3-CHLORO-4-[(TRIFLUOROMETHYL) SULFANYL]PHENYL}-N^6,N^6-DIMETHYL-4,6-PYRIMIDINEDIAMINE], the pKi falls from 7.04 to 6.50 (0.54 log units).

Going from Cc1ccc(Nc2cc(N(C)C)nc(N3CCN(c4ccccn4)CC3)n2)c(NC(C)C)c1 [Example 45, N^4-[2-(ISOPROPYLAMINO)-4-METHYLPHENYL]-N^6,N^6-DIMETHYL-2-[4-(2-PYRIDINYL)-1-PIPERAZINYL]-4,6-PYRIMIDINEDIAMINE] to O=C1CCN(c2cc(Nc3ccc(Cl)c(Cl)c3)nc(N3CCN(Cc4ccccc4)CC3)n2)CC1 [Example 53, 1-[2-(4-BENZYL-1-PIPERAZINYL)-6-(3,4-DICHLOROANILINO)-4-PYRIMIDINYL]-4-PIPERIDINONE], the pKi rises from 6.30 to 7.44 (1.14 log units). The second binds more tightly here.
